The test system of data set [1] is pancreatin (Panzytrat 40,000). The method, then:
Both media are from the company Biorelevant®, Ltd. in Great Britain. In addition, in some experiments porcine pancreas is added (Panzytrat® 40,000, Fa. Allergan).
The pancreatin is used in the form of the commercially available product Panzytrat® 40,000 from the Allergan company. The whole mixture is stirred on a hot plate at 50° C.; the course of the reaction is determined and monitored by continuously recording the acid number over time.

For data set [2] the following is noted: even if several grams are taken; cited from earlier work.

The values that follow come from patent US12577190B2, “Method for producing polyol-based esters of ketocarboxylic acids” (KetoLipix Therapeutics GmbH, priority 2019, dated 2026).

As to 3-oxobutyric acid di-diglycerol ester, in data set [1], the cleavage by pancreatin result is given as “cleaved”. Still for that read-out and setting: in the case of 3-oxobutyric acid mono-diglycerol ester it was “cleaved”; in that of 3-oxobutyric acid tri-diglycerol ester, “cleaved”. Consider `CC(O)CC(=O)O` (stereo not shown) [3-hydroxybutyric acid], for which, in data set [2], the duration of ketosis result was “three to four”.
